Results from publication PMC12706794, “Identification and Characterization of a Small-Molecule Inhibitor of the Pseudomonas aeruginosa SOS Response” (ACS Infectious Diseases, 2025).
≈ marks a conversion by molar mass, not a printed value.

Columns and labels:
LexAPa = target: T1, LexAPa (Pseudomonas aeruginosa, UniProt P37452); test: ESI-MS analysis of LexAPa preincubated with A12; type: binding, P. aeruginosa; settings: 2 mM A12, 2 h at 25 °C; disulfide bond at Cys104, lost with 5 mM DTT
T1 construct: different LexAPa variants (FlAsH-LexAPa ^CTD vs full-length LexAPa) were used in the two assays; made in house; host or cells: E. coli BL21(DE3)
Protocol: Then, ESI-MS analysis was carried out on both RecAPa and LexAPa alone and preincubated with A12 (referred to as RecAPa-A12 and LexAPa-A12, respectively).
(§1) MS analysis was carried out on 5 μL samples of compound A12 (2 mM), of the proteins 6His-LexAPa and 6His-RecAPa (50 μM), and of the same proteins incubated with 2 mM A12 (2 h incubation at 25 °C, 10% v/v DMSO in 100 mM NaHCO3 pH 7.0). Aliquots of the latter samples were treated with 5 mM dithiothreitol (DTT) for 1 h at 25 °C before being buffer-exchanged in 100 mM NaHCO3 at pH 7.0. Samples were analyzed by an electrospray ionization (ESI) mass spectrometer equipped with a Xevo G2-XS ESI-Q-TOF mass spectrometer (Waters Corporation, Milford, Massachusetts, USA). Measurements were carried out at 1.5–1.8 kV capillary voltage and 30–40 V cone voltage.
Tryptic digestion was obtained at a 1:20 trypsin to protein ratio (by weight) after the incubation of the proteins (6His-LexAPa and 6His-RecAPa) with chemical compound A12. The reaction was left at 37 °C overnight and then stopped by freezing at – 20 °C. Proteolytic mixtures were analyzed by LC–MS, using an Agilent AdvanceBio Peptide Map column (2.1 × 150 mm × 2.7 μm; Santa Clara, CA, USA) connected to an Acquity H-Class instrument (Waters Corporation, Milford, Massachusetts, USA). […]

[1] = test system: P. aeruginosa PAO1 on A549 lung epithelial cells; test: P. aeruginosa PAO1 colonization of A549 lung epithelial cells; type: cell-based
[2] = Solubility in aqueous buffers; type: physicochemical; settings: aqueous buffer, read-out: Solubility in aqueous buffers, concentration above which it strongly worsened
LexAPa S125A = target: T2, LexAPa S125A (Pseudomonas aeruginosa, UniProt P37452, S125A); test: Isothermal titration calorimetry on LexAPa S125A; type: binding, P. aeruginosa
T2 construct: Concerning full-length LexAPa ^S125A, a biphasic melting curve was obtained for the pure protein; made in house; host or cells: E. coli BL21(DE3)
Protocol: To investigate deeper the binding of A12 to the two members of the P. aeruginosa SOS complex, ITC was performed on RecAPa and LexAPa ^S125A (Figure D,E). The integrated binding isotherms of both proteins were best fitted by a “one set of sites” model.
64 μM RecAPa and 58.5 μM LexAPa ^S125A were titrated with the selected compound (2.5 mM solution) using a Microcal PEAQ-ITC instrument (Malvern Panalytical) at 25 °C with a stirring rate of 750 rpm. Proteins and the ligand were dissolved in ITC Buffer (20 mM Tris–HCl, 150 mM NaCl, 5% v/v DMSO, pH 7.5). An initial 0.4 μL injection (excluded from data analysis) was followed by 24 injections of 1.5 μL with a spacing of 150 s between each addition. Blank experiments were performed by injecting the titrant compound in a protein-devoid ITC Buffer. Blank curves were subtracted from all of the experiments. Data were analyzed by using the MicroCal PEAQ-ITC Evaluation software (Malvern Panalytical). Integrated heat signals were fitted by a “one set of sites” binding model to obtain enthalpy changes (ΔH), dissociation constants (K D), and stoichiometry of binding.

[3] = ESI-MS analysis of A12 in buffer; type: physicochemical; settings: 2 mM A12 in FP assay buffer, no DTT
Protocol: The same analysis was conducted after treatment of A12 with 2 mM DTT (Figure B). In this sample, the MS signals corresponding to the disulfide adduct were absent, leading to the conclusion that the dimerization of A12 by the formation of a disulfide bridge can occur under physiological conditions. When in monomeric form, the compound is likely degraded and/or not detectable by MS under the tested experimental conditions.
as §1

[4] = test system: THP-1-derived macrophages; test: Cytotoxicity assessment by MTT assay, THP-1-derived macrophages; type: cell-based, Human; settings: combination of ciprofloxacin 0.5 μg/mL and A12 100 μg/mL, 3 h
Protocol: A549 cells were seeded in flat-bottom 96-well plates at 5 × 10^4 cells/well. THP-1 monocytes were differentiated into macrophages using PMA as described above, rested in PMA-free medium, detached by trypsinization, and seeded at 5 × 10^4 cells/well. Plates were incubated overnight to allow cell attachment. […] Test medium was then removed and replaced with fresh medium containing 0.5 mg/mL 3-(4,5-dimethylthiazol-2-yl)-2,5-diphenyltetrazolium bromide (MTT). After a 2 h incubation, the medium was discarded, formazan crystals were solubilized with 100 μL of DMSO, and absorbance was measured at 570 nm using a spectrophotometer (Varioskan LUX Multimode Microplate Reader, Thermo Fisher Scientific). Cell viability was expressed as a percentage relative to the untreated controls.

[5] = test system: P. aeruginosa PAO1 on THP-1-derived macrophages; test: P. aeruginosa PAO1 colonization of THP-1-derived macrophages; type: cell-based
Protocol: THP-1-derived macrophages were generated from THP-1 monocytes as previously described, with minor modifications. , Briefly, THP-1 monocytes were washed three times with antibiotic-free RPMI 1640 medium and resuspended in complete antibiotic-free RPMI 1640 supplemented with 300 nM phorbol 12-myristate 13-acetate (PMA). Cells were incubated for 24 h, followed by a 48 h rest period in PMA-free RPMI 1640 prior to use in subsequent experiments. […] PMA-differentiated THP-1-derived macrophages were similarly trypsinized and seeded into 24-well plates at 5 × 10^5 cells/well in complete, antibiotic-free RPMI supplemented with FBS. Cells were incubated overnight to allow for attachment. Immediately prior to infection, the medium was aspirated, and cells were washed three times with Dulbecco’s phosphate-buffered saline. […] Infection was synchronized by centrifuging plates at 1000g for 1 min. […] Following the infection period, the medium was aspirated, and cells were washed three times with DPBS to remove unattached bacteria and residual test compounds. […] In both cases, the resulting lysates were serially diluted in DPBS and plated on tryptic soy agar plates. Plates were incubated at 37 °C for 24 h, after which colonies were enumerated. Bacterial burden was expressed as the CFU per well.

[6] = combination of ciprofloxacin 0.5 μg/mL and A12 100 μg/mL

T2 sequence (P37452 2-204 S125A): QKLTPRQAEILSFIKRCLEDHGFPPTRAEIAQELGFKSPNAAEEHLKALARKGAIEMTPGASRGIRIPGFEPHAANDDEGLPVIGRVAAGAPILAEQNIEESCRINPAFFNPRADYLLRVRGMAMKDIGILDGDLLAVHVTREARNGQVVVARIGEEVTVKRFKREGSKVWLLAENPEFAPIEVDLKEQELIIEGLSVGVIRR
T1 sequence (P37452 whole entry): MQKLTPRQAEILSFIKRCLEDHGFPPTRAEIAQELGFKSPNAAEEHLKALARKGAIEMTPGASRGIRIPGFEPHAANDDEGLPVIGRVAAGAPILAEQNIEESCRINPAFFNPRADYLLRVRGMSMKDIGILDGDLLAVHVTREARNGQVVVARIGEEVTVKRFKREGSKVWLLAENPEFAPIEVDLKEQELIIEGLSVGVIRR

Question: Which “Mass difference of A12-modified LexAPa versus unmodified protein” value (LexAPa) does the source give for `O=C(O)CCNc1ccccc1S` [A12, 3-(2-sulfanylanilino)propanoic acid] here?
Answer: 195 Da

Question: And the “Intracellular (internalized) burden of PAO1 in A549 cells” value ([1]; A12 100 μg/mL alone)?
Answer: reduced the internalized bacterial growth

Question: What about the “Intracellular (internalized) burden of PAO1 in A549 cells” value [1, 6] of the same compound?
Answer: synergized with ciprofloxacin

Question: What about the “Total (adherent + intracellular) burden of PAO1 on A549 lung cells” value [1, 6] of the same compound?
Answer: significantly reduced colonization

Question: And the solubility [2]?
Answer: ~500 µM (≈ 98.6 µg/mL)

Question: What about the Kd (LexAPa S125A) of the same compound?
Answer: 7.4 ± 0.5 µM

Question: What about the “Form of A12 in solution by MS” value [3] of the same compound?
Answer: mainly exists as a disulfide-bridged self-dimer in solution

Question: And the “Cell viability compared to the untreated control” value [4]?
Answer: higher than 80%

Question: What about the “Intracellular (internalized) burden of PAO1 in THP-1-derived macrophages” value ([5]; A12 100 μg/mL alone) of the same compound?
Answer: reduced the internalized bacterial growth

Question: And the “Intracellular (internalized) burden of PAO1 in THP-1-derived macrophages” value [5, 6]?
Answer: synergized with ciprofloxacin

Question: What about the “Total (adherent + intracellular) burden of PAO1 on THP-1-derived macrophages” value ([5]; single agent: ciprofloxacin 0.5 μg/mL or A12 100 μg/mL, 3 h infection) of the same compound?
Answer: diminished
